# Results: patent US20260069584A1, “METHODS OF TREATING CHRONIC MYELOID LEUKEMIA USING THE TYROSINE KINASE INHIBITOR VODOBATINIB” (Sun Pharma Advanced Research Company Ltd., priority 2022, published 2026)
# System: AP CML, BP CML and Ph+ ALL
# Experiment: Part B: disease response in AP CML, BP CML and Ph+ ALL subjects
# Assay type: in vivo, human
# Text: This was a Phase I/2, open-label, single-agent, multicenter, multi-dose, dose-escalation study in subjects with Philadelphia chromosome-positive Ph+ CML (CP CML, AP CML and BP CML) and Ph+ ALL. The primary objectives of this study were to determine the maximum tolerated dose (MTD; or recommended Phase 2 dose [RP2D]) of the compound of Formula I when administered orally and to evaluate its safety.
# In this study, the dose-escalation cohort started with an accelerated titration study design (ATD) and shifted to a 3±3 design when subjects in the preceding ATD cohort experienced either grade 2 or higher adverse events (AEs) or dose-limiting toxicity (DLT) during Cycle 1 that was not clearly and incontrovertibly related to the underlying disease or concomitant medications. The DLT period consisted of 28 days (Cycle 1). Subjects experiencing DLTs were managed with dose delays and/or discontinuation and continued in the study until disease progression. Decisions to advance to a succeeding dose level occurred after the evaluation of safety and tolerability data for a given dose level.
# Accordingly, the eligible subjects were treated in 4-week cycles of once daily self-administration of the compound of Formula I. The administration was after an overnight fast, or after maintaining approximately 2 hours of fasting before and after the dosing in all cycles.
# For the cohorts, where the 3±3 design applies, 3 subjects were enrolled initially. If 2 of these subjects experienced a Grade 2 or more toxicity (that was not clearly and incontrovertibly related to the underlying disease or concomitant medications), subsequent cohorts were escalated according to smaller increments. Further, if there were no DLTs in the first 3 subjects, dose escalation to the next higher dose level was allowed to proceed. If 1 of the 3 subjects experienced a DLT, that dose level was expanded to 6 subjects (3 additional subjects were enrolled). If 2 subjects at a given dose level experienced a DLT, the MTD was considered to have been exceeded. The next lower dose level was expanded to 6 subjects, or if 6 subjects had already been enrolled and no more than 1 of the 6 subjects experienced a DLT, then this lower dose level was considered the MTD. Additional subjects were enrolled in dose escalation cohorts for further assessment of safety and efficacy of the compound of Formula 1 at doses that were tolerated (i.e., doses that have <2 DLTs in 6 enrolled subjects or <1 DLT in 3 enrolled subjects). Thus 204 mg was arrived at as MTD. A subject experiencing a DLT was allowed to continue therapy with a reduced dose. Subjects who experienced a DLT and recovered were treated at the next lower dose level until disease progression or other events requiring further dose reduction existed. For cohorts at Dose Level 2 or higher, a further dose reduction (i.e., up to 2 levels lower than their originally assigned dose) was implemented in the case of a further DLT or other non-DLT events requiring a dose reduction, if and when the event leading to dose reduction returned to Grade 1 or lower in severity. The reduced dose was re-escalated to the original or higher dose (i.e., the dose for which safety had been established in the dose escalation cohort) considering subject safety and response to the compound of Formula I. The subject was discontinued from treatment using the compound of Formula I, if dose reduction below 48 mg was required.
# The study was conducted over a period of 60 months (5 years) which was divided in 28-days cycle. In the first two cycles, the dose administration was started on day 1 and the subject's assessments were performed on day 1, day 2, day 3, day 8, day 15 and day 22. From Cycle 3 onwards, the assessments were performed every 3 months (i.e., on day 28 of Cycle 3, followed by day 28 of Cycle 6 which was further followed by day 28 of Cycle 9). […]
structure (smiles),measurement,setting,value
"Cc1ccc(C(=O)NNC(=O)c2c(C)cccc2Cl)cc1C#Cc1cnc2ccccc2c1 [compound of Formula I, N′-(2-chloro-6-methylbenzoyl)-4-methyl-3-[2-(3-quinolyl)ethynyl]-benzohydrazide]",Best Cytogenetic Response: Complete Response,24 mg (N = 1) ESC,1(100)
same,Best Cytogenetic Response: Major Cytogenetic Response,24 mg (N = 1) ESC,1(100)
same,Best Cytogenetic Response: Minimal Response,24 mg (N = 1) ESC,0
same,Best Cytogenetic Response: Minor Response,24 mg (N = 1) ESC,0
same,Best Cytogenetic Response: No Response,24 mg (N = 1) ESC,0
same,Best Cytogenetic Response: Partial Response,24 mg (N = 1) ESC,0
same,Best Hematologic Response: Complete Response,24 mg (N = 1) ESC,1(100)
same,Best Hematologic Response: Major Hematologic Response,24 mg (N = 1) ESC,1(100)
same,Best Hematologic Response: No Evidence of Leukemia,24 mg (N = 1) ESC,0
same,Best Hematologic Response: No Response,24 mg (N = 1) ESC,0
same,Best Molecular Response: Complete Response,24 mg (N = 1) ESC,0
same,Best Molecular Response: Major Response,24 mg (N = 1) ESC,1(100)
same,Best Molecular Response: No Response,24 mg (N = 1) ESC,0
same,Best Cytogenetic Response: Complete Response,48 mg (N = 3) ESC,2(66.7)
same,Best Cytogenetic Response: Major Cytogenetic Response,48 mg (N = 3) ESC,2(66.7)
same,Best Cytogenetic Response: Minimal Response,48 mg (N = 3) ESC,0
same,Best Cytogenetic Response: Minor Response,48 mg (N = 3) ESC,0
same,Best Cytogenetic Response: No Response,48 mg (N = 3) ESC,1(33.3)
same,Best Cytogenetic Response: Partial Response,48 mg (N = 3) ESC,0
same,Best Hematologic Response: Complete Response,48 mg (N = 3) ESC,3(100)
same,Best Hematologic Response: Major Hematologic Response,48 mg (N = 3) ESC,3(100)
same,Best Hematologic Response: No Evidence of Leukemia,48 mg (N = 3) ESC,0
same,Best Hematologic Response: No Response,48 mg (N = 3) ESC,0
same,Best Molecular Response: Complete Response,48 mg (N = 3) ESC,1(33.3)
same,Best Molecular Response: Major Response,48 mg (N = 3) ESC,1(33.3)
same,Best Molecular Response: No Response,48 mg (N = 3) ESC,2(66.7)
same,Best Cytogenetic Response: Complete Response,90 mg (N = 1) ESC,1(100)
same,Best Cytogenetic Response: Major Cytogenetic Response,90 mg (N = 1) ESC,1(100)
same,Best Cytogenetic Response: Minimal Response,90 mg (N = 1) ESC,0
same,Best Cytogenetic Response: Minor Response,90 mg (N = 1) ESC,0
same,Best Cytogenetic Response: No Response,90 mg (N = 1) ESC,0
same,Best Cytogenetic Response: Partial Response,90 mg (N = 1) ESC,0
same,Best Hematologic Response: Complete Response,90 mg (N = 1) ESC,1(100)
same,Best Hematologic Response: Major Hematologic Response,90 mg (N = 1) ESC,1(100)
same,Best Hematologic Response: No Evidence of Leukemia,90 mg (N = 1) ESC,0
same,Best Hematologic Response: No Response,90 mg (N = 1) ESC,0
same,Best Molecular Response: Complete Response,90 mg (N = 1) ESC,1(100)
same,Best Molecular Response: Major Response,90 mg (N = 1) ESC,1(100)
same,Best Molecular Response: No Response,90 mg (N = 1) ESC,0
same,Best Cytogenetic Response: Complete Response,126 mg (N = 3) ESC,0
same,Best Cytogenetic Response: Major Cytogenetic Response,126 mg (N = 3) ESC,0
same,Best Cytogenetic Response: Minimal Response,126 mg (N = 3) ESC,0
same,Best Cytogenetic Response: Minor Response,126 mg (N = 3) ESC,1(33.3)
same,Best Cytogenetic Response: No Response,126 mg (N = 3) ESC,1(33.3)
same,Best Cytogenetic Response: Partial Response,126 mg (N = 3) ESC,0
same,Best Hematologic Response: Complete Response,126 mg (N = 3) ESC,0
same,Best Hematologic Response: Major Hematologic Response,126 mg (N = 3) ESC,0
same,Best Hematologic Response: No Evidence of Leukemia,126 mg (N = 3) ESC,0
same,Best Hematologic Response: No Response,126 mg (N = 3) ESC,1(33.3)
same,Best Molecular Response: Complete Response,126 mg (N = 3) ESC,0
same,Best Molecular Response: Major Response,126 mg (N = 3) ESC,0
same,Best Molecular Response: No Response,126 mg (N = 3) ESC,2(66.7)
same,maintained CCyR and MMR,2 Ph+ ALL pts,1 pt
same,CCyR with MMR,3 AP CML patients,1 patient
same,PCyR,3 AP CML patients,2 patients
same,complete hematological response (CHR),4 BP CML patients,2 patients
same,disease progression as best response,4 BP CML patients,2 patients
same,Best Cytogenetic Response: Complete Response,66 ang (N = 3) ESC,2(66.7)
same,Best Cytogenetic Response: Minor Response,66 ang (N = 3) ESC,0
same,Best Cytogenetic Response: No Response,66 ang (N = 3) ESC,0
same,Best Hematologic Response: Complete Response,66 ang (N = 3) ESC,0
same,Best Hematologic Response: Major Hematologic Response,66 ang (N = 3) ESC,2(66.7)
same,Best Hematologic Response: No Response,66 ang (N = 3) ESC,1(33.3)
same,Best Molecular Response: Major Response,66 ang (N = 3) ESC,1(33.3)
same,Best Molecular Response: No Response,66 ang (N = 3) ESC,2(66.7)
same,Best Cytogenetic Response: Major Cytogenetic Response,(N = 3) ESC,3(100)
same,Best Cytogenetic Response: Minimal Response,(N = 3) ESC,0
same,Best Cytogenetic Response: Partial Response,(N = 3) ESC,1(33.3)
same,Best Hematologic Response: No Evidence of Leukemia,(N = 3) ESC,2(66.7)
same,Best Molecular Response: Complete Response,(N = 3) ESC,1(33.3)
same,Best Cytogenetic Response: Complete Response,Total ESC,6(54.5)
same,Best Cytogenetic Response: Major Cytogenetic Response,Total ESC,7(63.6)
same,Best Cytogenetic Response: Minimal Response,Total ESC,0
same,Best Cytogenetic Response: Minor Response,Total ESC,1(9.1)
same,Best Cytogenetic Response: No Response,Total ESC,2(18.2)
same,Best Cytogenetic Response: Partial Response,Total ESC,1(9.1)
same,Best Hematologic Response: Complete Response,Total ESC,5(45.5)
same,Best Hematologic Response: Major Hematologic Response,Total ESC,7(63.6)
same,Best Hematologic Response: No Evidence of Leukemia,Total ESC,2(18.2)
same,Best Hematologic Response: No Response,Total ESC,2(18.2)
same,Best Molecular Response: Complete Response,Total ESC,3(27.3)
same,Best Molecular Response: Major Response,Total ESC,4(36.4)
same,Best Molecular Response: No Response,Total ESC,6(54.5)
